Common to all, as to format: biochemical
One test addresses T1, JAK1 (Homo sapiens, UniProt P23458).
T1 construct: purchased Carna Biosciences 08-144
In words: Functional assay of protein Janus kinases (Caliper mobility shift), JAK1. The note with it: ATP 100 μM, incubation 150 min; read-out: JAK1 enzymatic activity (IC50) score. Here is the method:
(§1) The functional assays of protein Janus kinases were carried out in 384-well plates using a final volume of 30 μl. […] The reaction was reads in a “Caliper EzReader LabChip 3000” (Caliper, Hopkinton, Mass.) reader, based on electrophoretic mobility of the fluorescent substrate and the phosphorylated product.
(§2) The inhibition percentages were calculated by comparison between control reactions, for 100% of inhibition and reactions with only DMSO for 0% of inhibition.

The next test concerns the target T2, JAK2 (Homo sapiens, UniProt O60674).
T2 construct: purchased Carna Biosciences 08-045
As to the kind of experiment: Functional assay of protein Janus kinases (Caliper mobility shift), JAK2. Particulars: ATP 300 μM, incubation 30 min; read-out: JAK2 enzymatic activity (IC50) score. Here is the method: as §1, §2

The next test concerns the target T3, Human ARK5/NUAK1 (Homo sapiens, UniProt O60285).
T3 construct: purchased Reaction Biology ARK5/NUAK1
T3 sequence (O60285 1-661): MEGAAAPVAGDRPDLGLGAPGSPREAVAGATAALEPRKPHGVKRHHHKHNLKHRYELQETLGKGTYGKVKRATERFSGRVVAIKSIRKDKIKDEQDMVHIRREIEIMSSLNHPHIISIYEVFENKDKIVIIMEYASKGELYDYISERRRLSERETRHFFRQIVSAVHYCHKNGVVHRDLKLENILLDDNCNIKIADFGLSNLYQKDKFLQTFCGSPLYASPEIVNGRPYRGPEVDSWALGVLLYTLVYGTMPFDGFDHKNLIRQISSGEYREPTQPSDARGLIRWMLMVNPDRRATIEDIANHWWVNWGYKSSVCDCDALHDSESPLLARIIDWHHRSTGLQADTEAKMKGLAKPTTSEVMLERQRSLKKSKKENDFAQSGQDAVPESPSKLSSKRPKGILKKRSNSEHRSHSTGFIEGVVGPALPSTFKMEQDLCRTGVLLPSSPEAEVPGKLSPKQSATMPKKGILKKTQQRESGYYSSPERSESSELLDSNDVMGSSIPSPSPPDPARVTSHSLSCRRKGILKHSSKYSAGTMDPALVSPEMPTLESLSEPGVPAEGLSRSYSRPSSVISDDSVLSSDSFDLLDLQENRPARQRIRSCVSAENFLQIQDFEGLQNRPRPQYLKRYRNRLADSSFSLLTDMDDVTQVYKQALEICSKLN
In words: ARK5 activity inhibition test (Reaction Biology kit, 33P-ATP filter assay). The note with it: ATP 10 μM, peptide substrate 20 μM, 120 min; read-out: ARK5 enzymatic activity (IC50) score. Here is the method:
Activity test was carried out using the kit from Reaction Biology (CAT #: ARK5/NUAK1). The test uses enzyme Human ARK5/NUAK1 and the substrate is the peptide […] (SEQ ID NO: 1), 20 μM and ATP 10 μM. Other reagents are the following: Base Reaction buffer; 20 mM Hepes (pH 7.5), 10 mM MgCl2, 1 mM EGTA, 0.02% Brij35, 0.02 mg/ml BSA, 0.1 mM Na3VO4, 2 mM DTT, 1% DMSO.
The reaction was carried out following the instructions of manufacturer. Briefly, kinase/substrate pairs were prepared in reaction buffer. Compounds were delivered into the reaction, followed 20 minutes later by addition of a mixture of ATP (Sigma, St. Louis Mo.) and ^33P ATP (Perkin Elmer, Waltham Mass.) to a final concentration of 10 μM. Reactions were carried out at room temperature for 120 min, followed by spotting of the reactions onto P81 ion exchange filter paper (Whatman Inc., Piscataway, N.J.). Unbound phosphate was removed by extensive washing of filters in 0.75% phosphoric acid. […] IC50 values and curve fits were obtained using Prism (GraphPad Software).

For the next test, the target named is T4, JAK3 (Homo sapiens, UniProt P52333).
T4 construct: purchased Carna Biosciences 08-046
In words: Functional assay of protein Janus kinases (Caliper mobility shift), JAK3. Particulars: ATP 8 μM, incubation 30 min; read-out: JAK3 enzymatic activity (IC50) score. Here is the method: as §1, §2

For another test, the target named is T5, TYK2 (Homo sapiens, UniProt P29597).
T5 construct: purchased Carna Biosciences 08-147
T5 sequence (P29597 871-1187 limits assumed): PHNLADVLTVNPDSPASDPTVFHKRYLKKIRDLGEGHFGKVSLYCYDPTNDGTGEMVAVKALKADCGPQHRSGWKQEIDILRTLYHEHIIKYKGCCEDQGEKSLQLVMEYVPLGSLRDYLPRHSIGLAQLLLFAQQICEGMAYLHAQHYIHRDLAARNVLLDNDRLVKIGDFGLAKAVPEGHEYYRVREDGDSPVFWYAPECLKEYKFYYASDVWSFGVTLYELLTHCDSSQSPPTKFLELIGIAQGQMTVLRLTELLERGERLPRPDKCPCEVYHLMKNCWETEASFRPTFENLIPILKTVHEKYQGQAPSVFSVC
In words: Functional assay of protein Janus kinases (Caliper mobility shift), TYK2. The note with it: ATP 20 μM, incubation 45 min; read-out: TYK2 enzymatic activity (IC50) score. Here is the method:
as §1, §2

Some results are limits rather than exact numbers.

T1 sequence (P23458 850-1154 limits assumed): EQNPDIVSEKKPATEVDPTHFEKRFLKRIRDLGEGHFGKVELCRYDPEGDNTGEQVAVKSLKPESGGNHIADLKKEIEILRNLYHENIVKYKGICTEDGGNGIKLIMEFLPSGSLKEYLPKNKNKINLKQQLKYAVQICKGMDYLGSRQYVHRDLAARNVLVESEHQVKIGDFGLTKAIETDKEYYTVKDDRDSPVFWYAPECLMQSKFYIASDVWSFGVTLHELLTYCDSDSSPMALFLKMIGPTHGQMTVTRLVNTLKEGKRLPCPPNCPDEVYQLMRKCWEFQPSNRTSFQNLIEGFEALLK
T4 sequence (P52333 795-1124 limits assumed): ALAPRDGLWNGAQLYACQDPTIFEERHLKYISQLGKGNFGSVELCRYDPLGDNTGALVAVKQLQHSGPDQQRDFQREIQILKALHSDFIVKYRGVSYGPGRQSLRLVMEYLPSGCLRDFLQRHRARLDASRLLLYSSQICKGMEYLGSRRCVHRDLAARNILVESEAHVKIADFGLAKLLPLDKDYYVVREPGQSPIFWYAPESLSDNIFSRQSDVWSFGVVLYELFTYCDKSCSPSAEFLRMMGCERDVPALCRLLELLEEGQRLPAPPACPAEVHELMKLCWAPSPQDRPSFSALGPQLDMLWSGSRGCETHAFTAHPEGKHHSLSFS
T2 sequence (O60674 826-1132 limits assumed): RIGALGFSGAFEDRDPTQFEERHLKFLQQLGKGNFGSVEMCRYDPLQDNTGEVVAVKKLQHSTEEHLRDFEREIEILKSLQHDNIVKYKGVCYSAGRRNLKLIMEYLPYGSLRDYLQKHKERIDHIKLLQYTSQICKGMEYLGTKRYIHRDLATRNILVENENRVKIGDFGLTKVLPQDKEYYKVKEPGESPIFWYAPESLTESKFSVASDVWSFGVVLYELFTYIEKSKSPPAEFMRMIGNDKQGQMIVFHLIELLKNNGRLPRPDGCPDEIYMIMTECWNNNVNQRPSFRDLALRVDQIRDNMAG

As for `O=C(NC1CCCCC1)c1cccn2c(=O)c3cc(-c4ccc(F)cc4)ccc3nc12` [Example 29, N-cyclohexyl-2-(4-fluorophenyl)-11-oxo-11H-pyrido[2,1-b]quinazoline-6-carboxamide], the IC50 on JAK1 was above 1 µM; at JAK2 it was above 1 µM; at Human ARK5/NUAK1, below 0.1 µM; at JAK3, 0.1 to 1 µM; at TYK2, above 1 µM.

The values are drawn from US11021479B2, “Pyridoquinazoline derivatives useful as protein kinase inhibitors” (ONCOSTELLAE, S.L., priority 2017, dated 2021).
